pIC50: −log10 of the molar value.
Biological target: Glutamate receptor ionotropic, NMDA 2C (Rattus norvegicus, UniProt Q00961)
Experiment: Ability to inhibit [3H]CGS-19,755 binding to NMDA receptors.

Glutamate receptor ionotropic, NMDA 2C, sequence (Q00961 whole entry): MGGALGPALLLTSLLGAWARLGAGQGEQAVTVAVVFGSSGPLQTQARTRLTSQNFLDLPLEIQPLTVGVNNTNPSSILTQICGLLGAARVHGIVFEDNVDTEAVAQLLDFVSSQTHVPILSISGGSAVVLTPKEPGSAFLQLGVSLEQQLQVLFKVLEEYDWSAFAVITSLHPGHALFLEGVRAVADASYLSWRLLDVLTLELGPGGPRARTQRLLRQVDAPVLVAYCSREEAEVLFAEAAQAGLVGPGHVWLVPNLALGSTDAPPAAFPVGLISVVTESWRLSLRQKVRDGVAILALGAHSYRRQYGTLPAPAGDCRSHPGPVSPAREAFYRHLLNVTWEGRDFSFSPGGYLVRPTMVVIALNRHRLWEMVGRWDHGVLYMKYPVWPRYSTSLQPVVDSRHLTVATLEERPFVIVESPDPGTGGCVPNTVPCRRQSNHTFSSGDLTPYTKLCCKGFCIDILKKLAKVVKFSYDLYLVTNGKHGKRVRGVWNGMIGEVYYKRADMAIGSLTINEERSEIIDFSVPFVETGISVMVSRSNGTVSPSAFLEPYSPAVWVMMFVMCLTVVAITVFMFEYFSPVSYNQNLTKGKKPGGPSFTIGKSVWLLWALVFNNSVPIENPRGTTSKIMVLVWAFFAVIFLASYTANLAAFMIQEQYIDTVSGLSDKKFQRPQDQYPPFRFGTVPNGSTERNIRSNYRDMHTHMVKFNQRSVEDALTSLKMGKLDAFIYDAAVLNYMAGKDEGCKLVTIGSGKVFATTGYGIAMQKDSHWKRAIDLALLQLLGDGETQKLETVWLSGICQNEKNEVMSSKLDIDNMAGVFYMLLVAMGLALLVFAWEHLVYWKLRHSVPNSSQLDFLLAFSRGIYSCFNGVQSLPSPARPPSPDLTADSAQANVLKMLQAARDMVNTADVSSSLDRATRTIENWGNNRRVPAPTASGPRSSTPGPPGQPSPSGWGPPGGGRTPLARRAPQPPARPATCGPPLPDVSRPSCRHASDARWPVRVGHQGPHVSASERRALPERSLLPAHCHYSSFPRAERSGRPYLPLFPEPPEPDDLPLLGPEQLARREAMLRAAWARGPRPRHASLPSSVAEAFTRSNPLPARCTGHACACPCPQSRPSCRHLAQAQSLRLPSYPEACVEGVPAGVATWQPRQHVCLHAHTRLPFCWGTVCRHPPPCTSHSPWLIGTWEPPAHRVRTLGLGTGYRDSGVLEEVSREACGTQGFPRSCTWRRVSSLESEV

For `C[C@H](C[C@H](N)C(=O)O)C(=O)O` [2S,4R-4-METHYLGLUTAMATE], the pIC50 was under 5.15.

Source: ChEMBL document CHEMBL1128715, “Synthesis, resolution, and biological evaluation of the four stereoisomers of 4-methylglutamic acid: selective probes of kainate receptors” (J Med Chem, 1995)
